According to US9012443B2 (Amgen Inc., priority 2011, dated 2015):
Several values for one entry are separate records, joined by “and”; a condition that tells them apart may be missing. Identical values can stand only once. Like-named read-outs stand apart in the source and are kept apart here.

Target: Nav 1.7 (Homo sapiens (Human), UniProt Q15858)
Test: Nav 1.7 IWQ in vitro assay (IonWorks Quattro population patch-clamp)
Format: cell-based
Conditions: for IC50: 293 cells stably transfected with Nav 1.7
Procedure: Nav 1.7 or Nav 1.5 IWQ In Vitro Assay
293 Cells stably transfected with either Nav 1.7 or Nav 1.5 were recorded in population patch-clamp mode with the IonWorks® Quattro automated electrophysiology system in accordance with the manufacturer's specifications (Molecular Devices, LLC, Sunnyvale, Calif.). Sodium channel currents were measured in response to a train of depolarizations that induced successively greater inactivation.
Cells were then left unclamped for a period of 3 to 8 minutes while a single concentration of test compound was added. Cells were then reclamped and put through the same voltage protocol. Current at the end of the 26th pulse to −20 mV was subtracted from the peak current evoked by the 26th pulse to −20 mV to correct for leak current. Percent block was calculated for each concentration in duplicate, and IC50 curves were fitted to percent block as a function of concentration.

[1] = first part of table, read-out: Nav 1.7 IWQ IC50
[2] = second part of table, read-out: Nav1.7 IWQ IC50 IP

Sequence of Nav 1.7 (Q15858 whole entry): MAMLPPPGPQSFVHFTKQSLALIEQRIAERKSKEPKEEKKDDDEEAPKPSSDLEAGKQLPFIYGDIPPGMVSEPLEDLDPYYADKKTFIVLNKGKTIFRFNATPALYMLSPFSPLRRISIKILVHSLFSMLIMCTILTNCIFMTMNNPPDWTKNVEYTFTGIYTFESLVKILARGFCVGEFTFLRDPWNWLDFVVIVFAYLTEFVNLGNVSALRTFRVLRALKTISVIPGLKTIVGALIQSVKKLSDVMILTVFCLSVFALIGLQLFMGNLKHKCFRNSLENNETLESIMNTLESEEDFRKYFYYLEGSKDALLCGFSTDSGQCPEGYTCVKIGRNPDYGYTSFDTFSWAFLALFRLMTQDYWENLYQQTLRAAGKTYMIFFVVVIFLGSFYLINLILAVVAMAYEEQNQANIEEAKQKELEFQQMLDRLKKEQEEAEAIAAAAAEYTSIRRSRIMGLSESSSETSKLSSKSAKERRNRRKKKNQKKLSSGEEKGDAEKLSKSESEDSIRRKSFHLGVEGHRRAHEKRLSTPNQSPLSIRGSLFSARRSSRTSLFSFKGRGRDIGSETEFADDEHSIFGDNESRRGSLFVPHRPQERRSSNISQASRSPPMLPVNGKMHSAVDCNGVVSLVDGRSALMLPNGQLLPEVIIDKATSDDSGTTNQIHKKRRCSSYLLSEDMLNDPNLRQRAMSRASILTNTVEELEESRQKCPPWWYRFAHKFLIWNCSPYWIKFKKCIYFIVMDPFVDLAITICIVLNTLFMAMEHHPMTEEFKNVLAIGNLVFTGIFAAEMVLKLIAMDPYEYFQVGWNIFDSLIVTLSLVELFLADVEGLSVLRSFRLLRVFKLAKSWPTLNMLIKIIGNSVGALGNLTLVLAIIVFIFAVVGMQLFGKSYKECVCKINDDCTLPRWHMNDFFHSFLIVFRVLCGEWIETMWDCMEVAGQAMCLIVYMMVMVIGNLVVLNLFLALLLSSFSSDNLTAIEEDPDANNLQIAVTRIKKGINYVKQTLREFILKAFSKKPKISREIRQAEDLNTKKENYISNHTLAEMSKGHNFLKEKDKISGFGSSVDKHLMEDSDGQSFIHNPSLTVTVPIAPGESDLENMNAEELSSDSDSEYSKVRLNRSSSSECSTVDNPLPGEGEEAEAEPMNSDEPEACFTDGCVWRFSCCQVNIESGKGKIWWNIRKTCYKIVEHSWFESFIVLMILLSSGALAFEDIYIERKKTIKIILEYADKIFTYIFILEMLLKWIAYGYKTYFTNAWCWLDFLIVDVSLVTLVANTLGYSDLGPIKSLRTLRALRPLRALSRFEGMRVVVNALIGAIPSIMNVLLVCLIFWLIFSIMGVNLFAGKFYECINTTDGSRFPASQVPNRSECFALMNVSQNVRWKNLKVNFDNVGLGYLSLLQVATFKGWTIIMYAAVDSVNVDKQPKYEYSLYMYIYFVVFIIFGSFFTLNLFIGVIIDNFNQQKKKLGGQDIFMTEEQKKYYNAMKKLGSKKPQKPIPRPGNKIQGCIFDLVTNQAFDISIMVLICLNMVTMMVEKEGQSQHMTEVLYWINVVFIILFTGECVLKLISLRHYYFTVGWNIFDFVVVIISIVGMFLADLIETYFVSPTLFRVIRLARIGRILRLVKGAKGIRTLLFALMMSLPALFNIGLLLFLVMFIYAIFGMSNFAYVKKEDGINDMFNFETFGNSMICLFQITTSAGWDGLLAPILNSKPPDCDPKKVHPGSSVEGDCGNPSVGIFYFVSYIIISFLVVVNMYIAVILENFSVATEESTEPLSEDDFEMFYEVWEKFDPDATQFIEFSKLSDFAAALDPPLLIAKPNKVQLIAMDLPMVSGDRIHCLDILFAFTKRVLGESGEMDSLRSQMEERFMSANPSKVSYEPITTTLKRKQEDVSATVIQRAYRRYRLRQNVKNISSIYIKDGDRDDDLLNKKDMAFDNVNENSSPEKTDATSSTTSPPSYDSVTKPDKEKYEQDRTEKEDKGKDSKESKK

IC50 [1] | IC50 [2] | Nav1.7 Single Point Data IWQ (at […]) (%) | Compound
60 nM |  |  | O=S(=O)(Nc1ccncn1)c1ccc2c(-c3ccc(C(F)(F)F)cc3C3=CCNCC3)nccc2c1 [Example 69, N-(PYRIMIDIN-4-YL)-1-(2-(1,2,3,6-TETRAHYDROPYRIDIN-4-YL)-4-(TRIFLUOROMETHYL)PHENYL)ISOQUINOLINE-6-SULFONAMIDE 2,2,2-TRIFLUOROACETATE]
15 nM |  |  | O=S(=O)(Nc1nccs1)c1ccc2c(-c3ccc(C(F)(F)F)cc3C3=CCNCC3)nccc2c1 [Example 70, 1-(2-(1,2,3,6-TETRAHYDROPYRIDIN-4-YL)-4-(TRIFLUOROMETHYL)PHENYL)-N-(THIAZOL-2-YL)ISOQUINOLINE-6-SULFONAMIDE]
20 nM |  |  | O=S(=O)(Nc1nccs1)c1ccc2c(-c3ccc(C(F)(F)F)cc3-c3ccncc3)nccc2c1 [Example 71, 1-(2-(PYRIDIN-4-YL)-4-(TRIFLUOROMETHYL)PHENYL)-N-(THIAZOL-2-YL)ISOQUINOLINE-6-SULFONAMIDE]
60 nM |  |  | CN1CC=C(c2cc(C(F)(F)F)ccc2-c2nccc3cc(S(=O)(=O)Nc4nccs4)ccc23)CC1 [Example 72, 1-(2-(1-METHYL-1,2,3,6-TETRAHYDROPYRIDIN-4-YL)-4-(TRIFLUOROMETHYL)PHENYL)-N-(THIAZOL-2-YL)ISOQUINOLINE-6-SULFONAMIDE]
80 nM |  |  | Cn1nccc1-c1cc(C(F)(F)F)ccc1-c1cccc2cc(S(=O)(=O)Nc3ccncn3)ccc12 [Example 74]
100 nM |  |  | O=S(=O)(Nc1ccncn1)c1ccc2c(-c3ccc(C(F)(F)F)cc3-c3ccncc3)cccc2c1 [Example 75]
70 nM |  |  | CN1CC=C(c2cc(C(F)(F)F)ccc2-c2cccc3cc(S(=O)(=O)Nc4ccncn4)ccc23)CC1 [Example 76]
70 nM |  |  | O=S(=O)(Nc1nccs1)c1ccc2c(-c3ccc(C(F)(F)F)cc3C3=CCNCC3)cccc2c1 [Example 77]
90 nM |  |  | CN1CC=C(c2cc(C(F)(F)F)ccc2-c2cccc3cc(S(=O)(=O)Nc4nccs4)ccc23)CC1 [Example 78]
900 nM |  |  | O=S(=O)(Nc1nccs1)c1ccc2c(-c3ccc(C(F)(F)F)cc3Cl)cccc2c1 [Example 79]
1200 nM |  |  | O=S(=O)(Nc1nccs1)c1ccc2c(N3CCCC3c3ccccc3)cccc2c1 (stereo not drawn) [Example 80]
40 nM |  |  | O=S(=O)(Nc1nccs1)c1ccc2c(-c3ccc(C(F)(F)F)cc3-c3ccnn3C3CNC3)cccc2c1 [Example 81]
70 nM |  |  | CN1CC(n2nccc2-c2cc(C(F)(F)F)ccc2-c2cccc3cc(S(=O)(=O)Nc4nccs4)ccc23)C1 [Example 82]
10 nM |  |  | O=S(=O)(Nc1ncns1)c1ccc2c(N3CCCC3c3ccccc3)cccc2c1 (stereo not drawn) [Example 83]
 | 7970 nM |  | O=C1CCCN1c1cccc2cc(S(=O)(=O)Nc3ncns3)ccc12 [Example 93]
 | 3960 nM |  | O=S(=O)(Nc1ccncn1)c1ccc2c(OCc3cccnc3)nccc2c1 [Example 128, 1-(PYRIDIN-3-YLMETHOXY)-N-(PYRIMIDIN-4-YL)ISOQUINOLINE-6-SULFONAMIDE]
 | 3300 nM |  | N#CC1(COc2nccc3cc(S(=O)(=O)Nc4ccncn4)ccc23)CC1 [Example 135, 1-((1-CYANOCYCLOPROPYL)METHOXY)-N-(PYRIMIDIN-4-YL)ISOQUINOLINE-6-SULFONAMIDE]
 | 3960 nM |  | Cc1nn(-c2ccccc2)nc1COc1nccc2cc(S(=O)(=O)Nc3ccncn3)ccc12 [Example 138, 1-((5-METHYL-2-PHENYL-2H-1,2,3-TRIAZOL-4-YL)METHOXY)-N-(PYRIMIDIN-4-YL)ISOQUINOLINE-6-SULFONAMIDE]
 | 6730 nM |  | COc1ncccc1-c1nccc2cc(S(=O)(=O)Nc3ccncn3)ccc12 [Example 144, 1-(2-METHOXYPYRIDIN-3-YL)-N-(PYRIMIDIN-4-YL)ISOQUINOLINE-6-SULFONAMIDE]
 | 6810 nM |  | COc1c(-c2nccc3cc(S(=O)(=O)Nc4ccncn4)ccc23)cccc1C(F)(F)F [Example 152, 1-(2-METHOXY-3-(TRIFLUOROMETHYL)PHENYL)-N-(PYRIMIDIN-4-YL)ISOQUINOLINE-6-SULFONAMIDE]

IC50 [1] | IC50 [2] | Nav1.7 Single Point Data IWQ (at […]) (%) | Compound
 | 6390 nM |  | COc1c(F)cccc1-c1nccc2cc(S(=O)(=O)Nc3ccncn3)ccc12 [Example 157, 1-(3-FLUORO-2-METHOXYPHENYL)-N-(PYRIMIDIN-4-YL)ISOQUINOLINE-6-SULFONAMIDE]
 | 4830 nM |  | Cc1cc(C#N)ccc1-c1nccc2cc(S(=O)(=O)Nc3ccncn3)ccc12 [Example 159]
 | 4120 nM |  | O=S(=O)(Nc1ccncn1)c1ccc2c(-c3cccc4ccsc34)nccc2c1 [Example 162, 1-(BENZO[B]THIOPHEN-7-YL)-N-(PYRIMIDIN-4-YL)ISOQUINOLINE-6-SULFONAMIDE]
 | 6610 nM |  | Cn1ccc2cccc(-c3nccc4cc(S(=O)(=O)Nc5ccncn5)ccc34)c21 [Example 164, 1-(1-METHYL-1H-INDOL-7-YL)-N-(PYRIMIDIN-4-YL)ISOQUINOLINE-6-SULFONAMIDE]
 | 1390 nM |  | COc1ncc(F)cc1-c1nccc2cc(S(=O)(=O)Nc3ccncn3)ccc12 [Example 166, 1-(5-FLUORO-2-METHOXYPYRIDIN-3-YL)-N-(PYRIMIDIN-4-YL)ISOQUINOLINE-6-SULFONAMIDE]
 | 5170 nM |  | COc1cnccc1-c1nccc2cc(S(=O)(=O)Nc3ccncn3)ccc12 [Example 169, 1-(3-METHOXYPYRIDIN-4-YL)-N-(PYRIMIDIN-4-YL)ISOQUINOLINE-6-SULFONAMIDE]
 | 2650 nM |  | COc1ccncc1-c1nccc2cc(S(=O)(=O)Nc3ccncn3)ccc12 [Example 170, 1-(4-METHOXYPYRIDIN-3-YL)-N-(PYRIMIDIN-4-YL)ISOQUINOLINE-6-SULFONAMIDE]
 | 2340 nM and 370 nM |  | COc1cc(C(F)(F)F)ccc1-c1nccc2cc(S(=O)(=O)Nc3cnccn3)ccc12 [Example 186, 1-(2-METHOXY-4-(TRIFLUOROMETHYL)PHENYL)-N-(PYRAZIN-2-YL)ISOQUINOLINE-6-SULFONAMIDE]
 | 4980 nM |  | O=S(=O)(Nc1ccncn1)c1ccc2c(Oc3ccc(Cl)c(Cl)c3)nccc2c1 [Example 193, 1-(3,4-DICHLOROPHENOXY)-N-(PYRIMIDIN-4-YL)ISOQUINOLINE-6-SULFONAMIDE]
 | > 10000 nM | 36% | Cn1ncnc1COc1nccc2cc(S(=O)(=O)Nc3ccncn3)ccc12 [Example 295, 1-((1-METHYL-1H-1,2,4-TRIAZOL-5-YL)METHOXY)-N-(PYRIMIDIN-4-YL)ISOQUINOLINE-6-SULFONAMIDE]
 | > 10000 nM | 23% | O=S(=O)(Nc1ccncn1)c1ccc2c(OCCn3ccnn3)nccc2c1 [Example 296, 1-(2-(1H-1,2,3-TRIAZOL-1-YL)ETHOXY)-N-(PYRIMIDIN-4-YL)ISOQUINOLINE-6-SULFONAMIDE]
 | > 10000 nM | 38% | O=S(=O)(Nc1ccncn1)c1ccc2c(OCc3cc4n(n3)CCCO4)nccc2c1 [Example 297, 1-((6,7-DIHYDRO-5H-PYRAZOLO[5,1-B][1,3]OXAZIN-2-YL)METHOXY)-N-(PYRIMIDIN-4-YL)ISOQUINOLINE-6-SULFONAMIDE]
 | > 10000 nM | 29% | O=S(=O)(Nc1ccncn1)c1ccc2c(OCc3cccnc3N3CCOCC3)nccc2c1 [Example 298, 1-((2-MORPHOLINOPYRIDIN-3-YL)METHOXY)-N-(PYRIMIDIN-4-YL)ISOQUINOLINE-6-SULFONAMIDE]
 | > 10000 nM | 49% | O=S(=O)(Nc1ccncn1)c1ccc2c(OCC(F)(F)C3CCOCC3)nccc2c1 [Example 299, 1-(2,2-DIFLUORO-2-(TETRAHYDRO-2H-PYRAN-4-YL)ETHOXY)-N-(PYRIMIDIN-4-YL)ISOQUINOLINE-6-SULFONAMIDE]
 | > 10000 nM | 25% | Cc1cccc(CCCOc2nccc3cc(S(=O)(=O)Nc4ccncn4)ccc23)n1 [Example 300, 1-(3-(6-METHYLPYRIDIN-2-YL)PROPOXY)-N-(PYRIMIDIN-4-YL)ISOQUINOLINE-6-SULFONAMIDE]
 | > 10000 nM | 40% | O=S(=O)(Nc1ccncn1)c1ccc2c(OCc3ccc(-n4ccnc4)cc3)nccc2c1 [Example 301, 1-((4-(1H-IMIDAZOL-1-YL)BENZYL)OXY)-N-(PYRIMIDIN-4-YL)ISOQUINOLINE-6-SULFONAMIDE]
 | > 10000 nM | 20% | O=S(=O)(Nc1ccncn1)c1ccc2c(OCCCc3cn[nH]c3C(F)(F)F)nccc2c1 [Example 302, N-(PYRIMIDIN-4-YL)-1-(3-(5-(TRIFLUOROMETHYL)-1H-PYRAZOL-4-YL)PROPOXY)ISOQUINOLINE-6-SULFONAMIDE]
 | > 10000 nM | 40% | O=S(=O)(Nc1ccncn1)c1ccc2c(OCCn3cccc3)nccc2c1 [Example 303, 1-(2-(1H-PYRROL-1-YL)ETHOXY)-N-(PYRIMIDIN-4-YL)ISOQUINOLINE-6-SULFONAMIDE]
 | > 10000 nM | 32% | O=S(=O)(Nc1ccncn1)c1ccc2c(OCc3ccc(N4CCOCC4)cc3)nccc2c1 [Example 304, 1-((4-MORPHOLINOBENZYL)OXY)-N-(PYRIMIDIN-4-YL)ISOQUINOLINE-6-SULFONAMIDE]

Compound | IC50 [1] | IC50 [2] | Nav1.7 Single Point Data IWQ (at […]) (%)
O=S(=O)(Nc1nccs1)c1ccc2c(N3CCN(c4ccc(Cl)c(Cl)c4)CC3)nccc2c1 [Example 247, 1-(4-(3,4-DICHLOROPHENYL)PIPERAZIN-1-YL)-N-(THIAZOL-2-YL)ISOQUINOLINE-6-SULFONAMIDE] |  |  | 35%
COc1cc(C(F)(F)F)ccc1-c1nccc2cc(S(=O)(=O)Nc3ccncn3)cnc12 [Example 292, 8-(2-METHOXY-4-(TRIFLUOROMETHYL)PHENYL)-N-(PYRIMIDIN-4-YL)-1,7-NAPHTHYRIDINE-3-SULFONAMIDE] |  | 3940 nM | 
